From patent US20210181179A1, “DIAGNOSIS AND TREATMENT OF IMMUNOTHERAPY-INDUCED NEUROTOXICITY” (MEMORIAL SLOAN KETTERING CANCER CENTER, priority 2018, published 2021)

What was measured:
[1] = test system: HMC3 microglial cell line; assay: RT-PCR of cytokines and chemokines in microglial cells; assay type: cell-based, human; conditions: for key chemokines, including CCL2, CXCL9 and CXCL10, and cytokine IL1beta: monocyte and microglial cell activation
Source text: FIGS. 19A-E. Kynurenine metabolites contribute to CRS. (FIG. 19A-B) RT-PCR analysis of cytokines and chemokines that lead to myeloid cell activation in response to kynurenine metabolites exposure. ([…]) Western blot analysis of HMC3 microglial cell line in response to kynurenine metabolites exposure. (FIGS. 19D-E.) RT-PCR analysis of cytokines and chemokines in response to exposure to cytokines shown (TNF, Il1β, IFNγ).
CCL2 (MCP1) and CXCL10 (IP10) serve as chemo-attractants for myeloid and T cells, while CXCL9 (MIG) is a potent T cell chemoattractant. […] We confirmed Il1β protein production in response to Il1β stimulation (FIG. 19C). Il1β production was dependent on Ahr activity, as addition of an Ahr antagonist blocked up-regulation of Il1β. Il1β is a strong inducer of microglial activation.

[2] = test system: adult patients with CD19+B-ALL; assay: Management of neurotoxicity and CRS (tocilizumab, corticosteroid, seizure prophylaxis) in the 19-28z CAR T cell trial; assay type: in vivo, human
Source text: The anti-IL-6 receptor monoclonal antibody, tocilizumab, with or without corticosteroid is often used to mitigate CRS and neurotoxicity. Six (18%) of 33 patients with neurotoxicity received tocilizumab alone; 14 (42%) received tocilizumab plus corticosteroid; 4 (12%) received corticosteroid alone; and 9 (27%) received neither tocilizumab nor corticosteroid (FIG. 6/Supplementary Fig. S1). In the 16 patients with severe neurotoxicity who received tocilizumab, 9 (56.3%) had peak neurotoxicity after the first dose of tocilizumab whereas 7 (43.7%) had peak neurotoxicity prior to or on the day of tocilizumab administration. […] The time from first tocilizumab and/or steroid dose to resolution of neurotoxicity (median, 9 days; range 4-21 days) was longer than the time to resolution of CRS (median, 1 day; range 0-3 days; P<0.001), confirming previous findings that neurotoxicity is less responsive than CRS to these treatment interventions.
Toxicity assessment: CRS was graded according to the MSKCC CRS grading system. Severe CRS was defined as ≥grade 3. Neurotoxicity was prospectively graded according to National Cancer Institute common terminology criteria for adverse events (CTCAE) v4.03 by the principal investigator (P). An independent retrospective review of the electronic medical record was performed by a neurologist (BS) who assigned daily neurotoxicity grades to the AE terms according to CTCAE v4.03. Discrepancies were adjudicated by consensus review. All patients developing neurologic symptoms were evaluated by the neurology consult service and followed with daily neurologic assessments until neurologic symptom resolution. Severe neurotoxicity was defined as ≥grade 3 toxicity with the exception that any seizure (including grade 1 or 2 by CTCAE criteria) was included as severe neurotoxicity.

NMDA receptors = assay: Western blot of HCN2 neurons for NMDA receptor activation (p-CREB, p-Erk); assay type: cell-based; conditions: 30 min, cytokines applied via culture filtrates of stimulated HMC3 microglia
Source text: FIGS. 18A-B. Western blot analysis of HCN2 neurons showing NMDA receptor activation through increase in p-CREB levels in response to exposure to conditioned media. The conditioned media was produced by microglia and monocytes treated with cytokines to stimulate quinolinic acid (QUIN) production (FIG. 18A). This effect can be blocked with the use of IDO and AhR inhibitors (FIG. 18B) that block either kynurenine metabolite production or signaling.
QUIN binds directly to NMDA receptors, and leads to Ca^2+ influx, followed by activation cascade through Erk kinase phosphorylation and eventual phosphorylation of CREB transcription factor. In order to test if microglial cell derived QUIN is sufficient to activate NMDA receptors, we performed a co-culture experiment. Culture filtrates from an HMC3 microglial cell line were stimulated with IFNγ, Il1β, or combination of both, and were layered over HCN2 cortical neurons for 30 min, after which the cells were lysed and tested for downstream effectors of NMDA receptor activation.

THP-1 (monocyte) = assay: Net production of TRP metabolites in media samples, THP-1; assay type: cell-based
KARPAS231 (B-ALL) = assay: Net production of TRP metabolites in media samples, KARPAS231; assay type: cell-based
DOAY (medulloblastoma) = assay: Net production of TRP metabolites in media samples, DOAY; assay type: cell-based
HCN2 (cortical neuron) = assay: Net production of TRP metabolites in media samples, HCN2; assay type: cell-based
RS4; 11 (B-ALL) = assay: Net production of TRP metabolites in media samples, RS4; 11; assay type: cell-based
BV173 (B-ALL) = assay: Net production of TRP metabolites in media samples, BV173; assay type: cell-based
SUP-B15 (B-ALL) = assay: Net production of TRP metabolites in media samples, SUP-B15; assay type: cell-based
ALL3.1 (B-ALL) = assay: Net production of TRP metabolites in media samples, ALL3.1; assay type: cell-based
CCF-STTG1 (astrocytoma) = assay: Net production of TRP metabolites in media samples, CCF-STTG1; assay type: cell-based, human
Source text: (§1) Under physiological conditions in the brain, kynurenine metabolism is driven by microglial cells and astrocytes with preferential production of QUIN and KA respectively. […] This may have been due to T cells producing cytokines and/or intermediate metabolites that are further metabolized to QUIN by the cells. In order to identify specific factors that may lead to tryptophan-kynurenine pathway up-regulation for QUIN production, we tested a panel of cytokine and chemokines implicated in NTX and CRS. […] We initially evaluated the panel of the select factors individually (FIGS. 16 A-B). We selected several cytokines based on their effect on rate-limiting enzymes for QUIN production. These included IFNγ, TNF, […], CXCL10 and […]. These enzymes were selected based on their regulation of key enzymes, KMO and KYNU, which may lead to supraphysiological accumulation of QUIN. These factors were further evaluated, individually or in combination, on astrocytoma, microglial, and primary monocyte-derived macrophages for mRNA levels of kynurenine pathway enzymes and kynurenine metabolites production (FIG. 17).

CCRF-SB (B-ALL) = assay: Net production of TRP metabolites in media samples, CCRF-SB; assay type: cell-based
HMC3 (microglia) = assay: Net production of TRP metabolites in media samples, HMC3; assay type: cell-based, human
Source text: as §1

[3] = early intervention strategy; cited from earlier work

Compound: O=C(O)c1cc(=O)c2ccccc2[nH]1 [KA, kynurenic acid]
- key chemokines, including CCL2, CXCL9 and CXCL10, and cytokine IL1beta [1]: up-regulation

Compound: Nc1ccccc1C(=O)CC(N)C(=O)O (centres unmarked) [kynurenine]
- production of chemokines and cytokines on co-incubation ([1]; microglial cells, RT-PCR): induced production of several chemokines (CCL2, CXCL9, CXCL10) and cytokines, most notably Il1β
- key chemokines, including CCL2, CXCL9 and CXCL10, and cytokine IL1beta [1]: up-regulation

Compound: CC[C@@H](C(N)=O)N1CCCC1=O [levetiracetam]
- patients who developed seizure despite levetiracetam prophylaxis ([2]; seizure prophylaxis): 14 patients

Compound: O=C(O)c1cccnc1C(=O)O [quinolinic acid]
- p-CREB and p-Erk in cortical neurons (NMDA receptors): p-CREB and p-Erk upregulation

Compound: Il1beta: cytokine
- p-CREB and p-Erk in cortical neurons (NMDA receptors): p-CREB and p-Erk upregulation
- monocyte attracting factors in response to Il1b ([1]; RT-PCR): strong upregulation of monocyte attracting factors, CCL2, CXCL9 and CXCL19

Compound: TNFα
- Net production of TRP metabolites in media samples: 3-HK (THP-1 (monocyte)): 0.82 ± 1.5
- Net production of TRP metabolites in media samples: KA (THP-1 (monocyte)): −9.9 ± 5
- Net production of TRP metabolites in media samples: KYN (THP-1 (monocyte)): 298.62 ± 61.8
- Net production of TRP metabolites in media samples: QUIN (THP-1 (monocyte)): 16.24 ± 51.4
- Net production of TRP metabolites in media samples: 3-HK (KARPAS231 (B-ALL)): 4.94 ± 3.4
- Net production of TRP metabolites in media samples: HAA (KARPAS231 (B-ALL)): 14.18 ± 4.6
- Net production of TRP metabolites in media samples: KA (KARPAS231 (B-ALL)): −7.72 ± 36.9
- Net production of TRP metabolites in media samples: KYN (KARPAS231 (B-ALL)): −72.84 ± 36.9
- Net production of TRP metabolites in media samples: QUIN (KARPAS231 (B-ALL)): −44.96 ± 36.3
- Net production of TRP metabolites in media samples: 3-HK (DOAY (medulloblastoma)): −8.84 ± 1.2
- Net production of TRP metabolites in media samples: HAA (DOAY (medulloblastoma)): 10.14 ± 0.8
- Net production of TRP metabolites in media samples: KA (DOAY (medulloblastoma)): 4.52 ± 0.7
- Net production of TRP metabolites in media samples: KYN (DOAY (medulloblastoma)): 35.94 ± 12.9
- Net production of TRP metabolites in media samples: QUIN (DOAY (medulloblastoma)): 19.86 ± 7.1
- Net production of TRP metabolites in media samples: 3-HK (HCN2 (cortical neuron)): 4.82 ± 1.9
- Net production of TRP metabolites in media samples: HAA (HCN2 (cortical neuron)): 4.52 ± 0.3
- Net production of TRP metabolites in media samples: KA (HCN2 (cortical neuron)): 1.56 ± 1.5
- Net production of TRP metabolites in media samples: KYN (HCN2 (cortical neuron)): 5.4 ± 10
- Net production of TRP metabolites in media samples: QUIN (HCN2 (cortical neuron)): 8.44 ± 12.2
- Net production of TRP metabolites in media samples: 3-HK (RS4; 11 (B-ALL)): −0.34 ± 1.9
- Net production of TRP metabolites in media samples: KA (RS4; 11 (B-ALL)): −5.46 ± 5.7
- Net production of TRP metabolites in media samples: KYN (RS4; 11 (B-ALL)): 4.38 ± 25.2
- Net production of TRP metabolites in media samples: QUIN (RS4; 11 (B-ALL)): 42.26 ± 39^
- Net production of TRP metabolites in media samples: 3-HK (BV173 (B-ALL)): 10.36 ± 9.9
- Net production of TRP metabolites in media samples: KA (BV173 (B-ALL)): −3.16 ± 2.1
- Net production of TRP metabolites in media samples: KYN (BV173 (B-ALL)): 216.84 ± 141.1 ™
- Net production of TRP metabolites in media samples: QUIN (BV173 (B-ALL)): −8.44 ± 48.4
- Net production of TRP metabolites in media samples: 3-HK (SUP-B15 (B-ALL)): 17.56 ± 14^
- Net production of TRP metabolites in media samples: HAA (SUP-B15 (B-ALL)): 6.58 ± 0.8
- Net production of TRP metabolites in media samples: KA (SUP-B15 (B-ALL)): −9.16 ± 3^
- Net production of TRP metabolites in media samples: KYN (SUP-B15 (B-ALL)): 303.8 ± 191
- Net production of TRP metabolites in media samples: QUIN (SUP-B15 (B-ALL)): −67.3 ± 23^
- Net production of TRP metabolites in media samples: 3-HK (ALL3.1 (B-ALL)): 6.26 ± 7.3
- Net production of TRP metabolites in media samples: KA (ALL3.1 (B-ALL)): −4.56 ± 5.5
- Net production of TRP metabolites in media samples: KYN (ALL3.1 (B-ALL)): 76.98 ± 139.6
- Net production of TRP metabolites in media samples: QUIN (ALL3.1 (B-ALL)): −13.1 ± 32.3
- Net production of TRP metabolites in media samples: 3-HK (CCF-STTG1 (astrocytoma)): −9.8 ± 2.6
- Net production of TRP metabolites in media samples: HAA (CCF-STTG1 (astrocytoma)): 10.74 ± 0.9
- Net production of TRP metabolites in media samples: KA (CCF-STTG1 (astrocytoma)): 1.36 ± 0.5
- Net production of TRP metabolites in media samples: KYN (CCF-STTG1 (astrocytoma)): 2853.38 ± 129.6
- Net production of TRP metabolites in media samples: QUIN (CCF-STTG1 (astrocytoma)): 12.92 ± 4
- Net production of TRP metabolites in media samples: 3-HK (CCRF-SB (B-ALL)): 28.96 ± 22.5
- Net production of TRP metabolites in media samples: HAA (CCRF-SB (B-ALL)): 11.34 ± 3.9
- Net production of TRP metabolites in media samples: KA (CCRF-SB (B-ALL)): −9.3 ± 4.7
- Net production of TRP metabolites in media samples: KYN (CCRF-SB (B-ALL)): 361.62 ± 256.4
- Net production of TRP metabolites in media samples: QUIN (CCRF-SB (B-ALL)): −70.3 ± 30.4
- Net production of TRP metabolites in media samples: 3-HK (HMC3 (microglia)): 7.44 ± 18
- Net production of TRP metabolites in media samples: HAA (HMC3 (microglia)): −2.14 ± 0.45
- Net production of TRP metabolites in media samples: KA (HMC3 (microglia)): 3.38 ± 2.9
- Net production of TRP metabolites in media samples: KYN (HMC3 (microglia)): 506.02 ± 251^
- Net production of TRP metabolites in media samples: QUIN (HMC3 (microglia)): 52.84 ± 27.6

Compound: tocilizumab
- patients with peak neurotoxicity prior to or on the day of tocilizumab administration ([2]; 7 of 16 patients with severe neurotoxicity who received tocilizumab): 43.7%
- patients with peak neurotoxicity after the first dose of tocilizumab ([2]; 9 of 16 patients with severe neurotoxicity who received tocilizumab): 56.3%
- response of neurotoxicity to tocilizumab administration ([2]; in most patients): did not respond
- time from first tocilizumab and/or steroid dose to resolution of CRS (median) ([2]; range 0-3 days): 1 days
- time from first tocilizumab and/or steroid dose to resolution of neurotoxicity (median) ([2]; range 4-21 days): 9 days
- serum IL6 after tocilizumab administration ([2]; serum): transient increase of serum IL6
- effect on CRS ([2]; tocilizumab therapy alone): readily improved CRS
- effect on neurologic symptoms ([2]; tocilizumab therapy alone): did not ameliorate neurologic symptoms
- frequency of severe neurotoxicity [3]: did not affect the frequency of severe neurotoxicity
- rate of severe CRS [3]: decreased the rate of severe CRS
